Measurements reported in patent US20220306659A1, “COMPOUND INHIBITING AND INDUCING DEGRADATION OF EGFR AND ALK” (BEIJING TIDE PHARMACEUTICAL CO., LTD., priority 2019, published 2022).

Experiments:
[1] = target: Ba/F3(EGFR^L858R/T790M/C797S) cells (Homo sapiens, UniProt P00533, T790M/C797S/L858R, cells depend on it); experiment: Assay of activity on Ba/F3 cells (CTG, 72 h); assay type: cell-based; conditions: read-out: IC50 (nM) Ba/F3 (EGFR^L858R/T790M/C797S)
Procedure, shortened: (§1)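 Ba/F3 cells dependent on each EGFR triple mutant were exposed to 3-fold compound dilutions for 72 h at 37° C, 5% CO2, with CellTiter-Glo luminescence as the read-out.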

EGFR^L858R/T790M/C797S = EGFR^L858R/T790M/C797S (Homo sapiens, UniProt P00533, C797S/L858R/T790M); experiment: EGFR inhibitory activity assay (TK-substrate-biotin/ATP, 665/615 ratio); assay type: biochemical; conditions: kinase inhibition
Procedure, shortened: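 HTRF kinase assay: enzyme preincubated with compound 10 min at room temperature, then reacted with biotinylated TK substrate and ATP for 40 min at room temperature.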

EGFR^Del19/T790M/C797S = EGFR^Del19/T790M/C797S (Homo sapiens, UniProt P00533, C797S/DEL746-750/T790M); experiment: as above; assay type: biochemical; conditions: kinase inhibition
Sequence of EGFR^Del19/T790M/C797S (P00533 with tags, fused parts or gaps DEL746-750/T790M/C797S): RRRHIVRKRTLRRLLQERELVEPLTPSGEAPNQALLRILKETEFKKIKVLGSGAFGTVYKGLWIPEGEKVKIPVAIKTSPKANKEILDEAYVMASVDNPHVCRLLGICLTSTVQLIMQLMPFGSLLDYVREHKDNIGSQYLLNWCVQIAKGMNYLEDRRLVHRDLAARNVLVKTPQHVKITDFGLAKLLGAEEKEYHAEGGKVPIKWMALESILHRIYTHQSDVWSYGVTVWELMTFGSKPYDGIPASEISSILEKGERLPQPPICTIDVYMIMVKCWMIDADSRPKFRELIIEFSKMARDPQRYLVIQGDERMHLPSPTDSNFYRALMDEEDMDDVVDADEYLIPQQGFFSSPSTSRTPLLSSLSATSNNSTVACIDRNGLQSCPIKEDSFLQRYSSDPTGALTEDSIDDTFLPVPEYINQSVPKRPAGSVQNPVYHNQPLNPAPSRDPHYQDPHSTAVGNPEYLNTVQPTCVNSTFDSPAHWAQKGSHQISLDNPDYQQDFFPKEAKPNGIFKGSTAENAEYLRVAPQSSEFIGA
Method: EGFR Inhibitory Activity Assay
(2) The plate was sealed, and centrifuged at 1,000 g for 1 min;
(4) 5 μl of the 2×EGFR protein working solution was added to the 384-well plate from step (2), centrifuged at 1,000 g for 30 s, and allowed to stand at room temperature (mixed thoroughly) for 10 min;
(6) 5 µL of the TK-substrate-biotin and ATP (the mixture prepared in step (5)) was added to the 384-well plate from step (4) to initiate the reaction;
(7) The mixture was centrifuged at 1,000 g for 30 s; the plate was sealed, and allowed to stand (and reacted) at room temperature for 40 min;
(10) The mixture was centrifuged at 1,000 g for 30 s, and allowed to stand (reacted) at room temperature for 1 h;
(§2) Formula of inhibition rate (%): […]
(§3) The nonlinear regression curve (dose response-variable slope) between the value of inhibition rate (%) and the logarithm of compound concentration was fitted with graphpad prism 8.0, the effect dose curve of compound was drawn, and the IC50 value was calculated.

ALK = ALK (Homo sapiens, UniProt Q9UM73); experiment: Assay of activity on ALK kinase; assay type: biochemical; conditions: kinase inhibition
Method: (§4) Assay of activity on ALK kinase
(§5) (1) A compound stock solution was prepared;
(§6) (2) The compound stock solution was diluted 3× to obtain a compound dilution;
(§7) (5) 5 μl of the 2× kinase working solution was added to the reaction plate, centrifuged at 1,000 rpm for 1 min, and incubated at 25° C. for 15 min;
(§8) (7) 5 μl of the TK-substrate-biotin and ATP (the mixture prepared in step (6)) was added to initiate the reaction;
(§9) (8) The mixture was centrifuged at 1,000 g for 30 s; the plate was sealed, and incubated at 25° C. for 60 min;
(§10) (11) The mixture was centrifuged at 1,000 g for 1 min, and incubated at 25° C. for 60 min;
as §2, §3
(§11) Y=Bottom+(Top−Bottom)/(1+10^((LogIC50−X)*Hill Slope))
(§12) X-axis: logarithm of compound concentration; Y axis: inhibition rate ([…])

Ba/F3(EML4-ALK) cells = target: T1, Ba/F3(EML4-ALK) cells (Homo sapiens, UniProt Q9UM73); experiment: Assay of activity on Ba/F3(EML4-ALK) cells (CTG, 72 h); assay type: cell-based; conditions: read-out: IC50 (nM) Ba/F3(EML4-ALK)
T1 construct: fused on or other part: Q9HC35 (Echinoderm microtubule-associated protein-like 4)
T1 sequence (Q9UM73 whole entry, change not shown, the tested form may be a part): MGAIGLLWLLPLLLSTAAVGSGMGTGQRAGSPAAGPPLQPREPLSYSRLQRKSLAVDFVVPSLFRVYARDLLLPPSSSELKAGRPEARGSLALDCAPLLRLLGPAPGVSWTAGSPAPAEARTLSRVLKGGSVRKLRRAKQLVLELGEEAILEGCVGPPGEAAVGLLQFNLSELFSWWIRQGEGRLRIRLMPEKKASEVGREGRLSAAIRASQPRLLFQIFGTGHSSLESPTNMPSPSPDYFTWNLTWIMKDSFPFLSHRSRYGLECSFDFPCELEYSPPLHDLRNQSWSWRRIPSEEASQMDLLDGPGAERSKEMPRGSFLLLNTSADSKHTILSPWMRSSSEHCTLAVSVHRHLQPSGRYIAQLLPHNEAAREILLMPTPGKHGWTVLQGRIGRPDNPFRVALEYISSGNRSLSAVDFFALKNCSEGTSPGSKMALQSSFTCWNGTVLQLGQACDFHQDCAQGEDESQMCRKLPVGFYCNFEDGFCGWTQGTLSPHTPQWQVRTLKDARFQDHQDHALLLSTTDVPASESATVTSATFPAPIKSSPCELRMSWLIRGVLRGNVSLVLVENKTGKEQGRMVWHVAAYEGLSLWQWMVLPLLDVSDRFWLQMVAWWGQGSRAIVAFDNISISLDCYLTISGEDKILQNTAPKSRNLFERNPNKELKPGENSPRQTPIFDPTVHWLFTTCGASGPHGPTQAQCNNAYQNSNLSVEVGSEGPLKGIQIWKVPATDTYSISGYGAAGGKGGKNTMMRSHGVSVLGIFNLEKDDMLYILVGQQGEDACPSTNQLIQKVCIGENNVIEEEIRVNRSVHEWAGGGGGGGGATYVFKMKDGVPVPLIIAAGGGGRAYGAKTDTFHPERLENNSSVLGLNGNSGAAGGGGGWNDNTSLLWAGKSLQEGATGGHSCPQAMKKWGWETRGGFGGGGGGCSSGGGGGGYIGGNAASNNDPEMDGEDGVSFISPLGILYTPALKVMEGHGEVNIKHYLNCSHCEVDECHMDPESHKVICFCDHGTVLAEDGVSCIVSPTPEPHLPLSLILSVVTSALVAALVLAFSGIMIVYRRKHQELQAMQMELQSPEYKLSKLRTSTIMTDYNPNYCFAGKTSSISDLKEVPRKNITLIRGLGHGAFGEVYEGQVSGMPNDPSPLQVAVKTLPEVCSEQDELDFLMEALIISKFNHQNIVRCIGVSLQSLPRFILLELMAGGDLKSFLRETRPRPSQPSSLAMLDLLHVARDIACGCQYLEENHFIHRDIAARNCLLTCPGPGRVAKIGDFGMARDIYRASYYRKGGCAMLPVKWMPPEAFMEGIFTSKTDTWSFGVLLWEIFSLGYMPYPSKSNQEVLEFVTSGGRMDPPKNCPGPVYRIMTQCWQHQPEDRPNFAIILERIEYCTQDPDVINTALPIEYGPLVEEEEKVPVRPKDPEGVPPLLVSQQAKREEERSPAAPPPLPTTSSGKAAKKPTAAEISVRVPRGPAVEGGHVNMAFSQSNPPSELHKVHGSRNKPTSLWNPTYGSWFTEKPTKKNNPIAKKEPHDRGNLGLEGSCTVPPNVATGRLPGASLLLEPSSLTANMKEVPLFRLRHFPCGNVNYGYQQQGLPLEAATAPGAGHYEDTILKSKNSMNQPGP
Procedure, shortened: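 Ba/F3(EML4-ALK) cells, 700 per well, were exposed to 3-fold serial compound dilutions for 72 h at 37° C, 5% CO2, and viability was then read by CTG luminescence.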

ALK^G1202R = ALK^G1202R (Homo sapiens, UniProt Q9UM73, G1202R); experiment: Assay of activity on ALK kinase; assay type: biochemical; conditions: kinase inhibition
Method: as §4, §5, §6, §7, §8, §9, §10, §2, §3, §11, §12

[2] = target: Ba/F3(EGFR^Del19/T790M/C797S) cells (Homo sapiens, UniProt P00533, DEL746-750/T790M/C797S, cells depend on it); experiment: Assay of activity on Ba/F3 cells (CTG, 72 h); assay type: cell-based; conditions: read-out: IC50 (nM) Ba/F3 (EGFR^Del19/T790M/C797S)
Sequence of Ba/F3(EGFR^Del19/T790M/C797S) cells (P00533 with tags, fused parts or gaps DEL746-750/T790M/C797S): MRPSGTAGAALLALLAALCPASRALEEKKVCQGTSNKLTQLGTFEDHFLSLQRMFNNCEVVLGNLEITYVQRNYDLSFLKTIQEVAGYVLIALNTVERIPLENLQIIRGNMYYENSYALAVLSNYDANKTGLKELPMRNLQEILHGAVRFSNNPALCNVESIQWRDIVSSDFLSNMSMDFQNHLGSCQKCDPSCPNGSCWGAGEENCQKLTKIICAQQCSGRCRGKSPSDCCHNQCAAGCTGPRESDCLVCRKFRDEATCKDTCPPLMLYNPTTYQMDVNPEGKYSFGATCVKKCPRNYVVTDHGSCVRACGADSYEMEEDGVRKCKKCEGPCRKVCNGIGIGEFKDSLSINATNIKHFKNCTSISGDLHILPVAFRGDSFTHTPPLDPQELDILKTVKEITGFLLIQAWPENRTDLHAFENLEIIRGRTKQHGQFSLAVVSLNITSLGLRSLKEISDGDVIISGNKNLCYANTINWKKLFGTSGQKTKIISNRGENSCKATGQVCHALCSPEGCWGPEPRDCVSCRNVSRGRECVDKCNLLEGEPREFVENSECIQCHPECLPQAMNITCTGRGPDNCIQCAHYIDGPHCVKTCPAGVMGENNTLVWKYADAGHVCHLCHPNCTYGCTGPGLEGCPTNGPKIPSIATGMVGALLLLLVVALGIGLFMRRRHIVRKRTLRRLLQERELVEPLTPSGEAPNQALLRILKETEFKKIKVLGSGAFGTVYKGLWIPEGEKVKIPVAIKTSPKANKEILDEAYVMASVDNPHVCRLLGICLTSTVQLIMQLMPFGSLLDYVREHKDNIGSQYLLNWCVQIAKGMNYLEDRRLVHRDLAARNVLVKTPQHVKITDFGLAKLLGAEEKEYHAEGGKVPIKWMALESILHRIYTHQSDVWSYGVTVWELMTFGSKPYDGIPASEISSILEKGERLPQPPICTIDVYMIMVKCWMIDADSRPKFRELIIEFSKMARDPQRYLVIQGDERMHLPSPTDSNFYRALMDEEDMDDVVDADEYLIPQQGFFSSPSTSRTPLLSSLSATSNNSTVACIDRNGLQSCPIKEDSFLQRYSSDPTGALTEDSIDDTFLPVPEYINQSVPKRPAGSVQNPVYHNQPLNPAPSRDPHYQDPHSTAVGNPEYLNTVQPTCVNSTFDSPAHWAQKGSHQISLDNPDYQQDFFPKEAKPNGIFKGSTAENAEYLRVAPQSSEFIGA
Procedure, shortened: as §1

Sequence of Ba/F3(EGFR^L858R/T790M/C797S) cells (P00533 whole entry T790M/C797S/L858R): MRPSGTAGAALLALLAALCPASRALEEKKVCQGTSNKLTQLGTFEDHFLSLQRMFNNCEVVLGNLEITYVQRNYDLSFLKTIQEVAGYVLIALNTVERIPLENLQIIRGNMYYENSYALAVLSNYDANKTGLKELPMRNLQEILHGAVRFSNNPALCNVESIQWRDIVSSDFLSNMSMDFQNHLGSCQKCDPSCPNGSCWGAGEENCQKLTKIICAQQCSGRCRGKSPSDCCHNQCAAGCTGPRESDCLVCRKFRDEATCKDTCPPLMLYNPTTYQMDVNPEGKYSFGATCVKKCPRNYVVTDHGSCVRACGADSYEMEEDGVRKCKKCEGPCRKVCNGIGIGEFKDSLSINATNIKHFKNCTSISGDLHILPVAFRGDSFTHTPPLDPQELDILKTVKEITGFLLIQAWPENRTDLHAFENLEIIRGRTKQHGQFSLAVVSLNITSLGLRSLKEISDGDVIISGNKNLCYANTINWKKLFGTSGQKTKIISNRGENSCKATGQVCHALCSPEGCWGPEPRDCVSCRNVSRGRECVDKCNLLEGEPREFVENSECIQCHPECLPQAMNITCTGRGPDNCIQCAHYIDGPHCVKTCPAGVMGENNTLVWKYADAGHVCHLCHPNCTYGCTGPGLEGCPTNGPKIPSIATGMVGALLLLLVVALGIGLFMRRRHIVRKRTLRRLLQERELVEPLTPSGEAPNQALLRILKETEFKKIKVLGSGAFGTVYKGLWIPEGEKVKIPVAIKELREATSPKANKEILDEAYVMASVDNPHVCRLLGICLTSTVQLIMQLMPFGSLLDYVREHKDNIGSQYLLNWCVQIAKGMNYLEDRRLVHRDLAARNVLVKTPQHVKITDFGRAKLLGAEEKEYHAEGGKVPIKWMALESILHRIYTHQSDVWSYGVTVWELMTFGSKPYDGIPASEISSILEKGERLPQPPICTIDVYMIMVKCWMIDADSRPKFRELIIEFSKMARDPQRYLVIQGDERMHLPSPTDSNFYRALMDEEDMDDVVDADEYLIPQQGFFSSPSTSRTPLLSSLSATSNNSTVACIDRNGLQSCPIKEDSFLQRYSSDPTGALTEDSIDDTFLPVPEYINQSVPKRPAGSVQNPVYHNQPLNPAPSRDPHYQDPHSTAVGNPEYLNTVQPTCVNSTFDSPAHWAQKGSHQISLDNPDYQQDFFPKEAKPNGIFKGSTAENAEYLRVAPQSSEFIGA

SMILES	GI50 [1] [nM]	IC50 (EGFR^L858R/T790M/C797S) [nM]	IC50 (EGFR^Del19/T790M/C797S) [nM]	IC50 (ALK) [nM]	GI50 (Ba/F3(EML4-ALK) cells) [nM]	IC50 (ALK^G1202R) [nM]	GI50 [2] [nM]
COc1cc(N2CCC(N3CCN(C(=O)CCCCCCc4cccc5c4C(=O)N(C4CCC(=O)NC4=O)C5=O)CC3)CC2)ccc1Nc1ncc(Cl)c(Nc2ccccc2P(C)(C)=O)n1 (centres unmarked) [Compound A1, 4-(7-(4-(1-(4-((5-chloro-4-((2-(dimethylphosphoryl)phenyl)amino)pyrimidin-2-yl)amino)-3-methoxyphenyl)piperidin-4-yl)piperazin-1-yl)-7-oxoheptyl)-2-(2,6-dioxopiperidin-3-yl)isoindoline-1,3-dione]	201 to 300	1 to 100	101 to 200	101 to 200	–	–	–
COc1cc(N2CCC(N3CCN(C(=O)CCCCCCOc4cccc5c4C(=O)N(C4CCC(=O)NC4=O)C5=O)CC3)CC2)ccc1Nc1ncc(Cl)c(Nc2ccccc2P(C)(C)=O)n1 (centres unmarked) [Compound A2, 4-((7-(4-(1-(4-((5-chloro-4-((2-(dimethylphosphoryl)phenyl)amino)pyrimidin-2-yl)amino)-3-methoxyphenyl)piperidin-4-yl)piperazin-1-yl)-7-oxoheptyl)oxy)-2-(2,6-dioxopiperidin-3-yl)isoindoline-1,3-dione]	201 to 300	1 to 100	101 to 200	1 to 100	–	–	–
COc1cc(N2CCC(N3CCN(CCOCCOCCOCCNC(=O)COc4cccc5c4C(=O)N(C4CCC(=O)NC4=O)C5=O)CC3)CC2)ccc1Nc1ncc(Cl)c(Nc2ccccc2P(C)(C)=O)n1 (centres unmarked) [Compound A3, N-(2-(2-(2-(2-(4-(1-(4-((5-chloro-4-((2-(dimethylphosphoryl)phenyl)amino)pyrimidin-2-yl)amino)-3-methoxyphenyl)piperidin-4-yl)piperazin-1-yl)ethoxy)ethoxy)ethoxy)ethyl)-2-((2-(2,6-dioxopiperidin-3-yl)-1,3-dioxoisoindolin-4-yl)oxy)acetamide]	–	1 to 100	1 to 100	–	–	–	–
COc1cc(N2CCC(N3CCN(CCCCCCCNc4cccc5c4CN(C4CCC(=O)NC4=O)C5=O)CC3)CC2)ccc1Nc1ncc(Cl)c(Nc2ccccc2P(C)(C)=O)n1 (centres unmarked) [Compound A12, 3-(4-((7-(4-(1-(4-((5-chloro-4-((2-(dimethylphosphoryl)phenyl)amino)pyrimidin-2-yl)amino)-3-methoxyphenyl)piperidin-4-yl)piperazin-1-yl)heptyl)amino)-1-oxoisoindolin-2-yl)piperidine-2,6-dione]	1 to 100	1 to 100	–	1 to 100	1 to 100	101 to 200	–
COc1cc(N2CCC(N3CCN(CCCCCCCCCNc4cccc5c4CN(C4CCC(=O)NC4=O)C5=O)CC3)CC2)ccc1Nc1ncc(Cl)c(Nc2ccccc2P(C)(C)=O)n1 (centres unmarked) [Compound A13, 3-(4-((9-(4-(1-(4-((5-chloro-4-((2-(dimethylphosphoryl)phenyl)amino)pyrimidin-2-yl)amino)-3-methoxyphenyl)piperidin-4-yl)piperazin-1-yl)nonyl)amino)-1-oxoisoindolin-2-yl)piperidine-2,6-dione]	101 to 200	101 to 200	–	1 to 100	1 to 100	> 300	–
COc1cc(N2CCC(N3CCN(CC(=O)Nc4cccc5c4CN(C4CCC(=O)NC4=O)C5=O)CC3)CC2)ccc1Nc1ncc(Cl)c(Nc2ccccc2P(C)(C)=O)n1 (centres unmarked) [Compound A17, 2-(4-(1-(4-((5-chloro-4-((2-(dimethylphosphoryl)phenyl)amino)pyrimidin-2-yl)amino)-3-methoxyphenyl)piperidin-4-yl)piperazin-1-yl)-N-(2-(2,6-dioxopiperidin-3-yl)-1-oxoisoindolin-4-yl)acetamide]	–	1 to 100	1 to 100	–	–	–	–

More lines, now with the values ahead:

GI50 [1] [nM]	IC50 (EGFR^L858R/T790M/C797S) [nM]	IC50 (EGFR^Del19/T790M/C797S) [nM]	IC50 (ALK) [nM]	GI50 (Ba/F3(EML4-ALK) cells) [nM]	IC50 (ALK^G1202R) [nM]	GI50 [2] [nM]	SMILES
–	1 to 100	1 to 100	1 to 100	1 to 100	201 to 300	1 to 100	COc1cc(N2CCC(N3CCN(CCCCC#Cc4cccc5c4CN(C4CCC(=O)NC4=O)C5=O)CC3)CC2)ccc1Nc1ncc(Cl)c(Nc2ccccc2P(C)(C)=O)n1 (centres unmarked) [Compound C116, 3-(4-(6-(4-(1-(4-((5-chloro-4-((2-(dimethylphosphoryl)phenyl)amino)pyrimidin-2-yl)amino)-3-methoxyphenyl)piperidin-4-yl)piperazin-1-yl)hex-1-yn-1-yl)-1-oxoisoindolin-2-yl)piperidine-2,6-dione]
1 to 100	1 to 100	1 to 100	1 to 100	1 to 100	201 to 300	–	COc1cc(N2CCC(N3CCN(CCCCCC#Cc4cc(F)cc5c4CN(C4CCC(=O)NC4=O)C5=O)CC3)CC2)ccc1Nc1ncc(Cl)c(Nc2ccccc2P(C)(C)=O)n1 (centres unmarked) [Compound C167, 3-(4-(7-(4-(1-(4-((5-chloro-4-((2-(dimethylphosphoryl)phenyl)amino)pyrimidin-2-yl)amino)-3-methoxyphenyl)piperidin-4-yl)piperazin-1-yl)hept-1-yn-1-yl)-6-fluoro-1-oxoisoindolin-2-yl)piperidine-2,6-dione]
–	1 to 100	1 to 100	1 to 100	1 to 100	201 to 300	1 to 100	COc1cc(N2CCC(N3CCN(CCCCCCC#Cc4cccc5c4CN(C4CCC(=O)NC4=O)C5=O)CC3)CC2)ccc1Nc1ncc(Cl)c(Nc2ccccc2P(C)(C)=O)n1 (centres unmarked) [Compound C177, 3-(4-(8-(4-(1-(4-((5-chloro-4-((2-(dimethylphosphoryl)phenyl)amino)pyrimidin-2-yl)amino)-3-methoxyphenyl)piperidin-4-yl)piperazin-1-yl)oct-1-yn-1-yl)-1-oxoisoindolin-2-yl)piperidine-2,6-dione]
–	1 to 100	1 to 100	1 to 100	1 to 100	201 to 300	1 to 100	COc1cc(N2CCC(N3CCN(CCCCCCCC#Cc4cccc5c4CN(C4CCC(=O)NC4=O)C5=O)CC3)CC2)ccc1Nc1ncc(Cl)c(Nc2ccccc2P(C)(C)=O)n1 (centres unmarked) [Compound C178, 3-(4-(9-(4-(1-(4-((5-chloro-4-((2-(dimethylphosphoryl)phenyl)amino)pyrimidin-2-yl)amino)-3-methoxyphenyl)piperidin-4-yl)piperazin-1-yl)non-1-yn-1-yl)-1-oxoisoindolin-2-yl)piperidine-2,6-dione]
–	1 to 100	1 to 100	–	1 to 100	–	1 to 100	COc1cc(N2CCC3(CCN(CCCCC#Cc4cccc5c4CN(C4CCC(=O)NC4=O)C5=O)CC3)CC2)c(C)cc1Nc1ncc(Br)c(Nc2ccc3nccnc3c2P(C)(C)=O)n1 (centres unmarked) [Compound C187, 3-(4-(6-(9-(4-((5-bromo-4-((5-(dimethylphosphoryl)quinoxalin-6-yl)amino)pyrimidin-2-yl)amino)-5-methoxy-2-methylphenyl)-3,9-diazaspiro[5.5]undecan-3-yl)hex-1-yn-1-yl)-1-oxoisoindolin-2-yl)piperidine-2,6-dione]
–	1 to 100	1 to 100	1 to 100	1 to 100	201 to 300	1 to 100	COc1cc(N2CCC(N3CCN(CCCCC#Cc4ccc5c(c4)CN(C4CCC(=O)NC4=O)C5=O)CC3)CC2)ccc1Nc1ncc(Cl)c(Nc2ccccc2P(C)(C)=O)n1 (centres unmarked) [Compound C192, 3-(5-(6-(4-(1-(4-((5-chloro-4-((2-(dimethylphosphoryl)phenyl)amino)pyrimidin-2-yl)amino)-3-methoxyphenyl)piperidin-4-yl)piperazin-1-yl)hex-1-yn-1-yl)-1-oxoisoindolin-2-yl)piperidine-2,6-dione]
